Data taken from the supplement of paper PMC8882468.

How the values were obtained:
Experiment in all cases: CTG-3D luminescence at 96 h relative to day-0 seeding control (ratio to day 0); higher = more growth / less cytotoxicity; PDxO 3D drug screen, 96 h, CTG-3D normalised to day-0 seeding control.
HCI-027 = test system: HCI-027 (organoid from a triple-negative breast cancer xenograft)
HCI-008 = test system: HCI-008 (organoid from a HER2-enriched breast cancer xenograft)
HCI-015 = test system: HCI-015 (organoid from a triple-negative breast cancer xenograft)
HCI-005.E2 = test system: HCI-005.E2 (organoid from a breast cancer xenograft with a HER2-positive history)
HCI-017.E2 = test system: HCI-017.E2 (organoid from an ER-positive breast cancer xenograft)
MDA-MB-231 = test system: MDA-MB-231
HCI-011.E2 = test system: HCI-011.E2 (organoid from an ER-positive breast cancer xenograft)

CC[C@H](NC(=O)[C@H](C)NC)C(=O)N1C[C@@H](O)C[C@H]1Cc1c(-c2[nH]c3cc(F)ccc3c2C[C@@H]2C[C@H](O)CN2C(=O)[C@H](CC)NC(=O)[C@H](C)NC)[nH]c2cc(F)ccc12 [birinapant]
CTG-3D luminescence at 96 h
Conditions	12.5 pM	0.00025 µM	0.005 µM	0.1 µM	1 µM	10 µM	100 µM	625 fM
HCI-008, days in culture: 228	1.3	1.73	0.611	0.11	0.147	0.206	0.162	1.43
HCI-008, days in culture: 244	1.27	1.82	1.05	0.549	0.521	0.713	0.51	2.04
HCI-011.E2, days in culture: 74	2.25	2.3	1.91	1.82	1.85	1.48	1.22	2.46
HCI-015, days in culture: 172	2.01	1.64	0.598	0.172	0.485	0.234	0.0277	1.3
HCI-015, days in culture: 191	0.803	0.19	0.16	0.126	0.32	0.224	0.0253	0.41
HCI-015, days in culture: 218	1.68	0.775	0.248	0.111	0.125	0.185	0.0267	1.8
HCI-017.E2, days in culture: 85	3.2	2.88	2.45	2.38	2.5	1.82	1.64	2.6
HCI-027, days in culture: 176	1.24	1.19	1.69	1.22	1.62	1.08	0.00679	1.18
HCI-027, days in culture: 194	1.58	1.02	0.983	0.99	1.14	1.31	0.129	1.53
HCI-027, days in culture: 201	1.64	1.19	1.14	0.985	0.933	1.13	0.11	1.76

CTG-3D luminescence at 96 h
Conditions	12.5 pM	0.00025 µM	0.005 µM	0.1 µM	1 µM	10 µM	100 µM	625 fM
HCI-005.E2	1.74	1.66	1.74	1.77	1.79	1.51	1.29	1.76
HCI-011.E2	1.4	1.53	1.16	1.61	1.34	1.59	0.956	1.72
HCI-017.E2	1.76	2.26	2.2	2.01	2.21	2.12	1.51	2.35
MDA-MB-231	4.36	4.2	4.35	1.96	2	2.03	2.41	4.39

CCN1CCN(Cc2ccc(Nc3ncc(F)c(-c4cc(F)c5nc(C)n(C(C)C)c5c4)n3)nc2)CC1 [abemaciclib]
CTG-3D luminescence at 96 h
Conditions	12.5 pM	0.00025 µM	0.005 µM	0.1 µM	1 µM	10 µM	100 µM	625 fM
HCI-008, days in culture: 228	1.42	1.63	1.38	1.89	1.86	1.53	0.0137	1.79
HCI-008, days in culture: 244	1.57	2.05	1.87	2.13	2.12	2.51	0.0231	2.52
HCI-011.E2, days in culture: 74	1.84	2.83	2.59	2.7	2.61	1.72	0.00196	2.79
HCI-015, days in culture: 172	2.01	1.6	1.87	1.21	1.52	1.06	0.0103	1.19
HCI-015, days in culture: 191	1.17	1.4	1.23	1.15	1.45	1.09	0.0126	1.07
HCI-015, days in culture: 218	2.17	1.65	1.7	1.63	1.48	1.23	0.0151	1.79
HCI-017.E2, days in culture: 85	2.84	2.45	2.5	2.52	2.03	1.81	0.0118	3.16
HCI-027, days in culture: 176	2.08	1.51	2.54	2.32	1.53	0.242	0.0171	1.82
HCI-027, days in culture: 194	1.66	1.49	1.8	1.97	1.87	1.39	0.0205	1.89
HCI-027, days in culture: 201	2.8	2.7	2.69	2.54	2.15	1.35	0.018	2.37

CTG-3D luminescence at 96 h
Conditions	12.5 pM	0.00025 µM	0.005 µM	0.1 µM	1 µM	10 µM	100 µM	625 fM
HCI-005.E2	1.99	2.57	2.09	1.96	1.61	1.43	0.00876	2.12
HCI-011.E2	1.49	1.5	1.57	1.9	1.52	1.04	0.00535	1.6
HCI-017.E2	1.858	1.97	2.083	2.11	2.01	1.5	0.00884	2.33
MDA-MB-231	4.61	4.47	4.69	4.48	4.55	3.73	0.0487	4.67

Cc1nc(-c2cn3c(n2)-c2ccc(-c4cnn(C(C)(C)C(N)=O)c4)cc2OCC3)n(C(C)C)n1 [taselisib]
CTG-3D luminescence at 96 h
Conditions	12.5 pM	0.00025 µM	0.005 µM	0.1 µM	1 µM	10 µM	100 µM	625 fM
HCI-008, days in culture: 228	1.62	1.54	1.28	0.687	0.439	0.314	0.174	1.8
HCI-008, days in culture: 244	1.38	1.94	1.92	0.848	0.448	0.358	0.123	2.25
HCI-011.E2, days in culture: 74	2.48	2.64	1.33	0.778	0.432	0.326	0.711	2.81
HCI-015, days in culture: 172	2.38	1.78	2.27	1.48	1.4	0.489	0.178	3.06
HCI-015, days in culture: 191	2.01	1.36	1.67	0.905	1.12	0.541	0.0414	1.56
HCI-015, days in culture: 218	2.32	1.88	1.69	1.55	0.988	0.617	0.0074	2.08
HCI-017.E2, days in culture: 85	3.03	2.91	1.97	0.848	0.668	0.194	0.166	2.38
HCI-027, days in culture: 176	1.91	1.52	2.2	1.11	1.31	0.095	0.0289	1.82
HCI-027, days in culture: 194	1.73	1.53	1.35	1.11	1.6	0.208	0.00956	1.77
HCI-027, days in culture: 201	2.55	2.73	2.59	1.88	1.72	0.173	0.031	2.81

CTG-3D luminescence at 96 h
Conditions	12.5 pM	0.00025 µM	0.005 µM	0.1 µM	1 µM	10 µM	100 µM	625 fM
HCI-005.E2	1.52	1.77	1.52	1.21	0.401	0.348	0.34	2.12
HCI-011.E2	1.44	1.59	1.07	0.776	0.369	0.212	0.527	1.51
HCI-017.E2	1.88	1.78	1.32	0.638	0.448	0.204	0.178	2.06
MDA-MB-231	4.54	4.45	4.53	4.29	3.9	2.97	1.22	4.58

CC(C)n1nc(-c2ccc3oc(N)nc3c2)c2c(N)ncnc21 [sapanisertib]
CTG-3D luminescence at 96 h
Conditions	12.5 pM	0.00025 µM	0.005 µM	0.1 µM	1 µM	10 µM	100 µM	625 fM
HCI-008, days in culture: 228	1.63	1.78	0.85	0.502	0.33	0.185	0.0307	1.78
HCI-008, days in culture: 244	1.15	1.75	1.82	0.854	0.511	0.267	0.0296	2.11
HCI-011.E2, days in culture: 74	2.89	2.86	1.28	0.283	0.158	0.168	0.26	2.98
HCI-015, days in culture: 172	2.06	1.81	1.9	0.761	0.765	0.544	0.204	2.17
HCI-015, days in culture: 191	1.67	1.6	1.4	0.411	0.69	0.363	0.165	1.72
HCI-015, days in culture: 218	1.96	1.53	1.59	0.561	0.547	0.511	0.156	1.77
HCI-017.E2, days in culture: 85	2.96	2.53	2.39	0.979	0.43	0.202	0.141	2.59
HCI-027, days in culture: 176	2.05	1.48	2.22	0.7	0.529	0.264	0.0926	1.82
HCI-027, days in culture: 194	1.72	1.59	1.5	0.847	0.824	0.441	0.102	1.57
HCI-027, days in culture: 201	2.25	1.83	2.1	0.956	0.784	0.301	0.141	2.47

CTG-3D luminescence at 96 h
Conditions	12.5 pM	0.00025 µM	0.005 µM	0.1 µM	1 µM	10 µM	100 µM	625 fM
HCI-005.E2	2.06	2.01	1.9	0.62	0.362	0.282	0.0263	1.56
HCI-011.E2	1.81	1.79	1.06	0.362	0.179	0.212	0.311	1.74
HCI-017.E2	1.69	2.18	1.703	0.694	0.493	0.251	0.126	2.02
MDA-MB-231	4.45	4.42	4.45	2.89	2.2	1.22	0.518	4.61
